Source: PubChem BioAssay AID2060604 (Molecular Pharmacology Branch, DTP, NCI, 2025)

System: 379773-124-R-J2-PDC complex spheroids, viability % test/control
Test: Anticancer human tumor 379773-124-R-J2-PDC patient-derived endometrial carcinoma cell line growth inhibition [CLK]
Details: for IC50: curve of first compound; for viability, T/C: stronger effect = lower value; active means viability on the fitted dose curve at most 10% of control; inactive means the rest
Text: A high-throughput screen of multi-cell type tumor spheroids was designed to identify active combinations of […] and targeted small molecules. Complex spheroids include a stromal component modeled by human endothelial cells (HUVEC) and fibroblasts modeled by human mesenchymal stem cells (MSCs). The concentration ranges selected for each drug and investigational agent were based upon clinically achievable concentrations if the clinical Cmax of the agent was known.
Compounds. The drugs and investigational agents: cirtuvivint (SM08502; NSC835563), CC-671 (NSC850746), vemurafenib (NSC761431), tapotoclax (NSC804041), sotorasib (NSC818433), adagrasib (NSC831453), MRTX-1133 (NSC836407), BAY2416964 (NSC825713), copanlisib (NSC816437), inavolisib (NSC800729), abemaciclib (NSC768073), osimertinib (NSC779217), entinostat (NSC756642), eltanexor (KPT-8602, NSC794443), venetoclax (NSC766270), ceralasertib (NSC777638), bortezomib (NSC756655), olaparib (NSC753686), talazoparib (NSC767125), alisertib (NSC759677), peposertib (NSC802822), gemcitabine (NSC613327), 5-fluorouracil (NSC19893), SN-38 (NSC673596), oxaliplatin (NSC266046), paclitaxel (NSC125973), and doxorubicin (NSC123127), were obtained from the National Cancer Institute (NCI) Developmental Therapeutics Program Chemical Repository. The FDA-approved anticancer drug set is available from the Developmental Therapeutics Program at https://dtp.cancer.gov/organization/dscb/obtaining/available plates.htm. […] The stock solutions were prepared in dimethyl sulfoxide (DMSO, Sigma-Aldrich, St. Louis, MO, cat. D2650), except for the platinum complexes which were prepared in saline (Quality Biological, Gaithersburg, MD, cat. 114-055-101), at 800-fold the tested concentration and stored at -70 degrees C prior to their use. All drugs and investigational agents were tested over a range starting from a high concentration at or near the clinical Cmax and decreasing in half-log increments. If the clinical Cmax for an agent had not been determined, the highest concentration tested was 10 microM.
Cell Culture. All cells were maintained in an incubator at 37 degrees C and 5% CO2 with 95% humidity. The PDC lines were cultured according to standard operating procedures established by the NCI PDMR. Briefly, all PDCs were thawed and cultured in Matrigel-coated flasks prepared with a working solution of 1X Ham's F-12 nutrient mix, without supplementation (Invitrogen, Waltham, MA, cat. 11765054), 100 U/mL penicillin-streptomycin (Invitrogen, cat. 15140122), and 2.5% Matrigel (Corning Inc., Corning, NY, cat. 354248) for the first three passages. The 947758-054-R-J2-PDC line was cultured in 6B/Colon 1A media, which includes advanced DMEM/F-12 (Thermo Fisher Scientific, cat. 12634028), 10 mM HEPES (Thermo Fisher Scientific, cat. 15630080), 1X GlutaMAX supplement (Thermo Fisher Scientific, cat. 35050061), 0.1 mg/mL primocin (InvivoGen, cat. ant-pm-2), 10% defined fetal bovine serum, heat inactivated (HyClone Laboratories Inc., cat. SH30070.03HI), 1.25 mM N-Acetyl-L-cysteine (Sigma-Aldrich, cat. A9165), 10 mM nicotinamide (Sigma-Aldrich, cat. N0636), 1X B-27 supplement (Thermo Fisher Scientific, cat. 17504044), 1X N-2 supplement (Thermo Fisher Scientific, cat. 17502048), and 10 microM Y-27632 dihydrochloride (Tocris Bioscience, cat. 1254). The 876862-298-R-J1-PDC was cultured in 6E media, which includes all 6B/Colon 1A media components plus 50% L-WRN conditioned media (ATCC, cat. CRL-3276), 50 ng/mL recombinant human EGF recombinant protein (hEGF; Thermo Fisher Scientific, cat. PHG0311), 10 ng/mL recombinant human fibroblast growth factor 10 (hGFG-10; PeproTech, cat. 100-26), 1 ng/mL recombinant human fibroblast growth factor 2 (hFGF-2; PeproTech, cat. 100-18B), and 1 µM prostaglandin E2 (PGE2; Tocris, cat. 2296). The 227483-062-R1-J1-PDC line was cultured in Panc media, containing all 6E components except hFGF-2, with the addition of 500 nM SB-431542 (Selleckchem, cat. S1067) and 10 nM gastrin (Tocris, cat. 3006). […]

[1] = second compound 0.0316 µM, first compound 0.0316 µM
[2] = second compound 0.0316 µM, first compound 0.1 µM
[3] = second compound 0.0316 µM, first compound 0.316 µM
[4] = second compound 0.0316 µM, first compound 1 µM
[5] = second compound 0.0316 µM, first compound 3.16 µM
[6] = second compound 0.0316 µM, first compound 10 µM
[7] = second compound 0.1 µM, first compound 0.0316 µM
[8] = second compound 0.1 µM, first compound 0.1 µM
[9] = second compound 0.1 µM, first compound 0.316 µM
[10] = second compound 0.1 µM, first compound 1 µM
[11] = second compound 0.1 µM, first compound 3.16 µM
[12] = second compound 0.1 µM, first compound 10 µM
[13] = second compound 0.316 µM, first compound 0.0316 µM
[14] = second compound 0.316 µM, first compound 0.1 µM
[15] = second compound 0.316 µM, first compound 0.316 µM
[16] = second compound 0.316 µM, first compound 1 µM
[17] = second compound 0.316 µM, first compound 3.16 µM
[18] = second compound 0.316 µM, first compound 10 µM
[19] = second compound 1 µM, first compound 0.0316 µM
[20] = second compound 1 µM, first compound 0.1 µM
[21] = second compound 1 µM, first compound 0.316 µM
[22] = second compound 1 µM, first compound 1 µM
[23] = second compound 1 µM, first compound 3.16 µM
[24] = second compound 1 µM, first compound 10 µM
[25] = second compound 3.16 µM, first compound 0.0316 µM
[26] = second compound 3.16 µM, first compound 0.1 µM
[27] = second compound 3.16 µM, first compound 0.316 µM
[28] = second compound 3.16 µM, first compound 1 µM
[29] = second compound 3.16 µM, first compound 3.16 µM
[30] = second compound 3.16 µM, first compound 10 µM
[31] = second compound 10 µM, first compound 0.0316 µM
[32] = second compound 10 µM, first compound 0.1 µM
[33] = second compound 10 µM, first compound 0.316 µM
[34] = second compound 10 µM, first compound 1 µM
[35] = second compound 10 µM, first compound 3.16 µM
[36] = second compound 10 µM, first compound 10 µM
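Further: compound exposure lasted seven days before the viability readout.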
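Wherever viability, T/C is given: 100% = DMSO vehicle control wells.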

CCCS(=O)(=O)Nc1ccc(F)c(C(=O)c2c[nH]c3ncc(-c4ccc(Cl)cc4)cc23)c1F + CN1CCN(c2cc(C(=O)Nc3cc4cc(-c5cnn(C)c5)ccc4cn3)ccn2)CC1
active: viability, T/C [19] 0.16% | viability, T/C [20] 0.29% | viability, T/C [21] 0.14% | viability, T/C [22] 0.13% | viability, T/C [23] 1.03% | viability, T/C [24] 0.09% | viability, T/C [25] 0.1% | viability, T/C [26] 0.48% | viability, T/C [27] 0.12% | viability, T/C [28] 0.91% | viability, T/C [29] 0.09% | viability, T/C [30] 0.51% | viability, T/C [31] 0.14% | viability, T/C [32] 1.01% | viability, T/C [33] 0.7% | viability, T/C [34] 2.8% | viability, T/C [35] 0.19% | viability, T/C [36] 0.29%
> 10000 nM: IC50 (second compound 0.0316 µM) | IC50 (second compound 0.1 µM)
< 31.6 nM: IC50 (second compound 0.316 µM) | IC50 (second compound 1 µM) | IC50 (second compound 3.16 µM) | IC50 (second compound 10 µM)
inactive: viability, T/C [1] 80.5% | viability, T/C [2] 86.1% | viability, T/C [3] 94.8% | viability, T/C [4] 90.1% | viability, T/C [5] 82.4% | viability, T/C [6] 58.7% | viability, T/C [7] 83.6% | viability, T/C [8] 65.8% | viability, T/C [9] 75.8% | viability, T/C [10] 70.2% | viability, T/C [11] 68.9% | viability, T/C [12] 54.8% | viability, T/C [13] 26.6% | viability, T/C [14] 27.3% | viability, T/C [15] 30.2% | viability, T/C [16] 27.2% | viability, T/C [17] 29.8% | viability, T/C [18] 18.3%

COC1C=CCC(C)C(C)S(=O)(=O)NC(=O)c2ccc3c(c2)N(CC2CCC21)CC1(CCCc2cc(Cl)ccc21)CO3 (centres undefined) + CN1CCN(c2cc(C(=O)Nc3cc4cc(-c5cnn(C)c5)ccc4cn3)ccn2)CC1
inactive: viability, T/C [1] 87.2% | viability, T/C [2] 97.5% | viability, T/C [3] 74.6% | viability, T/C [4] 86% | viability, T/C [5] 79.7% | viability, T/C [7] 77.2% | viability, T/C [8] 73.5% | viability, T/C [9] 78.7% | viability, T/C [10] 78.2% | viability, T/C [11] 76% | viability, T/C [13] 24.8% | viability, T/C [14] 29.9% | viability, T/C [15] 30.9% | viability, T/C [16] 26.5% | viability, T/C [17] 29.6% | viability, T/C [18] 1.06%
< 31.6 nM: IC50 (second compound 0.316 µM) | IC50 (second compound 1 µM) | IC50 (second compound 3.16 µM) | IC50 (second compound 10 µM)
4750 nM: IC50 (second compound 0.1 µM)
4970 nM: IC50 (second compound 0.0316 µM)
active: viability, T/C [6] 4.02% | viability, T/C [12] 2.54% | viability, T/C [19] 0.39% | viability, T/C [20] 0.17% | viability, T/C [21] 0.35% | viability, T/C [22] 0.18% | viability, T/C [23] 0.65% | viability, T/C [24] 0.11% | viability, T/C [25] 0.12% | viability, T/C [26] 0.14% | viability, T/C [27] 1.19% | viability, T/C [28] 0.82% | viability, T/C [29] 0.11% | viability, T/C [30] 0.1% | viability, T/C [31] 0.48% | viability, T/C [32] 0.72% | viability, T/C [33] 0.18% | viability, T/C [34] 1.21% | viability, T/C [35] 0.37% | viability, T/C [36] 0.23%
